Data as given in patent US8557738B2, “Nitrogen-containing heterocyclic derivative and fungicide for agricultural and horticultural use” (Nippon Soda Co., Ltd., priority 2008, dated 2013).
Like-named read-outs stand apart in the source and are kept apart here.

Columns and labels:
[1] = tested on: apple scab pathogen (Venturia inaequalis); experiment: Apple scab control test; assay type: in vivo; details: 336 h, read-out: control value
[2] = tested on: cucumber gray mold pathogen (Botrytis cinerea); experiment: Cucumber gray mold control test; assay type: in vivo; details: 96 h, read-out: control value
[3] = emulsion sprayed at 100 ppm active ingredient onto apple seedlings (Ralls Janet), lesions on leaves after 2 weeks vs untreated
[4] = emulsion sprayed at 100 ppm active ingredient onto cucumber seedlings (Sagami Hanjiro), lesions on leaves after 4 days vs untreated

Row | SMILES | pest or weed control at 100 ppm [1, 3] [%] | pest or weed control at 100 ppm [2, 4] [%] | melting point [°C] | pest or weed control at 100 ppm [1] [%] | pest or weed control at 100 ppm [2] [%]
1 | CC1(C)CN=C(c2cnc3ccccc3c2)c2cccc(Oc3ccccc3)c2O1 [B1-82, 2,2-Dimethyl-9-phenoxy-5-quinolin-3-yl-2,3-dihydro-benzo[f][1,4]oxazepine] | ≥ 75 | ≥ 75 | – | – | –
2 | Cc1cccc2c1OC(C)(C)CN=C2c1cnc2c(F)cccc2c1 [B1-79, 5-(8-Fluoro-quinolin-3-yl)-2,2,9-trimethyl-2,3-dihydro-benzo[f][1,4]oxazepine] | ≥ 75 | ≥ 75 | 151 to 153 | – | –
3 | CC1(C)CN=C(c2cnc3ccccc3c2)c2ccccc2O1 [B1-9, 2,2-Dimethyl-5-(3-quinolinyl)-2,3-dihydro-benzo[f][1,4]oxazepine] | ≥ 75 | ≥ 75 | – | – | –
4 | CC1(C)CN2OC2(c2cnc3c(F)cccc3c2)c2ccccc2O1 (stereo not drawn) [B6-34, 8b-(8-Fluoro-quinolin-3-yl)-3,3-dimethyl-2,3-dihydro-8bH-1,4-dioxa-1a-aza-benzo[a]cyclopropa[c]cycloheptene] | – | – | – | ≥ 75 | ≥ 75
5 | CC1(C)COc2ccccc2C(c2cnc3ccccc3c2)=N1 [B1-3, 3,3-Dimethyl-5-(3-quinolinyl)-2,3-dihydro-benzo[f][1,4]oxazepine] | ≥ 75 | ≥ 75 | 109 to 112 | – | –
6 | O=C1COc2ccccc2C(c2cnc3ccccc3c2)=N1 [B1-84, 5-Quinolin-3-yl-benzo[f][1,4]oxazepin-3-one] | – | ≥ 75 | 169 to 170 | – | –
7 | CC1(C2CC2)CN=C(c2cnc3ccccc3c2)c2ccccc2O1 (stereo not drawn) [B1-70, 2-Cyclopropyl-2-methyl-5-quinolin-3-yl-2,3-dihydro-benzo[f][1,4]oxazepine] | ≥ 75 | ≥ 75 | – | – | –
8 | c1ccc2c(c1)OC1(CC1)CN=C2c1cnc2ccccc2c1 [B1-72, 5-Quinolin-3-yl-2,3-dihydro-benzo[f][1,4]oxazepine-2-spiro-cyclopropane] | – | ≥ 75 | 102 to 104 | – | –
9 | CC1(C)C[N+]([O-])=C(c2cnc3c(F)cccc3c2)c2ccccc2O1 [B5-34, 5-(8-Fluoro-quinolin-3-yl)-2,2-dimethyl-2,3-dihydro-benzo[f][1,4]oxazepine 4-oxide] | ≥ 75 | ≥ 75 | – | – | –
10 | CC1(C)CN=C(c2cnc3ccccc3c2)c2ccccc2S1 [B2-6, 2,2-Dimethyl-5-(3-quinolinyl)-2,3-dihydro-benzo[f][1,4]thiazepine] | ≥ 75 | ≥ 75 | – | – | –
11 | CC1(C)CN(Cc2ccccc2)C(c2cnc3c(F)cccc3c2)c2cccc(Cl)c2O1 (stereo not drawn) [B4-50, 4-Benzyl-9-chloro-5-(8-fluoro-quinolin-3-yl)-2,2-dimethyl-2,3,4,5-tetrahydro-benzo[f][1,4]oxazepine] | – | ≥ 75 | 138 to 141 | – | –
